Results on 1 compound are retold here after patent US7875618B2, “Substituted imidazo[1,5-a]quinoxalines useful as inhibitors of phosphodiesterase 10 for the treatment of neurological and other disorders” (Wyeth, priority 2007, dated 2011).

The structures appear in SMILES notation.

One experiment has as its target T1, PDE10 from rat striatum (Rattus norvegicus, UniProt Q9QYJ6).
T1 construct: from tissue; host or cells: rat striatum (male Wistar)
T1 sequence (Q9QYJ6 1-794): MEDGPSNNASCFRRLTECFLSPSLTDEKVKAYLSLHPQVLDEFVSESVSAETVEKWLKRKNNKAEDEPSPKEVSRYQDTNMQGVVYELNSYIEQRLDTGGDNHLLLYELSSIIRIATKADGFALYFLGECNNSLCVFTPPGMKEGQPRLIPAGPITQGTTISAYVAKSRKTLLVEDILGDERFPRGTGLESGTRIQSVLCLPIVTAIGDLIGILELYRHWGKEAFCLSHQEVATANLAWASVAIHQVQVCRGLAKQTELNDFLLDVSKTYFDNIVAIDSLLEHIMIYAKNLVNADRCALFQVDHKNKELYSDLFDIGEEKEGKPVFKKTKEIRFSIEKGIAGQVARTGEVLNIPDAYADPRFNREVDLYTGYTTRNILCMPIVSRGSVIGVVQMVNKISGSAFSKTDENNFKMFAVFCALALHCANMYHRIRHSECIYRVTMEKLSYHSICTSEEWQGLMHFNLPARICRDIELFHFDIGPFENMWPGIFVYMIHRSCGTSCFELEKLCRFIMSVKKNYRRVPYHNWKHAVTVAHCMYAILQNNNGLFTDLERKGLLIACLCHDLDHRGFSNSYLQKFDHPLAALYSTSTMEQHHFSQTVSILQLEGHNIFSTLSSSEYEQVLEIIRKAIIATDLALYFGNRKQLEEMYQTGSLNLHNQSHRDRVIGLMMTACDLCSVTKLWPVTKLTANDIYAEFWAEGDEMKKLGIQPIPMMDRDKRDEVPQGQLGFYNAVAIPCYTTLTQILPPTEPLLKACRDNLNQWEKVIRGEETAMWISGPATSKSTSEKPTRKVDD
Put plainly: Inhibition of PDE10 from rat striatum (Method A). To be noted: read-out: Km of substrate. Format: biochemical. How it is done: Striatum from male Wistar rats (180-200 g), male hybrid pigs (150 kg) and male guinea pigs (CRL (HA), 500 g) respectively were collected and frozen at −70° C. At the day of preparation 0.5 g striatum was homogenised in 10 ml 50 mM Tris/Mg-buffer at 4° C. and centrifuged for one hour at 100000 g. The supernatant is called the cytosolic fraction and was removed and stored on ice. The pellet was resuspended in the same buffer, but containing 1% Triton and incubated for 45 min at 4° C. Both fractions were independently applied onto a 5 ml Hi Trap™ QHP column at the Äkta-FPLC. After washing the columns the bound PDE protein was eluted with an increasing sodium chloride gradient (0 mM-500 mM sodium chloride) in 50 mM Tris/Mg-buffer at 4° C. for the cytosolic fraction and in the presence of 1% Triton for the membrane fraction. […] The fractions with PDE10-activity were pooled and frozen in aliquots until use at −20° C. PDE10 activity was determined in a one step procedure in microtiter plates. […] Nonspecific activity was tested without the enzyme. The reaction was initiated by addition of the substrate solution and was carried out at 37° C. for 30 minutes. Enzymatic activity was stopped by addition of 25 μl YSi-SPA-beads (Amersham-Pharmacia). One hour later the mixture was measured in a liquid scintillation counter for microtiter plates (Microbeta Trilux). […]

The next experiment concerns the target PDE10 from pig striatum (Sus scrofa, UniProt A0A287B941). Put plainly: Inhibition of PDE10 from pig striatum ([3H]-cAMP SPA, Methods A and B). Format: biochemical. To be noted: Method A, PDE10 from pig striatum; read-out: Km of substrate.
For experiment [1], the target named is Phosphodiesterase (PDE) 10A (Homo sapiens, UniProt Q9Y233). To be noted: Soderling et al. 1999; read-out: Km of substrate; cited from earlier work.
Sequence of Phosphodiesterase (PDE) 10A (Q9Y233 whole entry): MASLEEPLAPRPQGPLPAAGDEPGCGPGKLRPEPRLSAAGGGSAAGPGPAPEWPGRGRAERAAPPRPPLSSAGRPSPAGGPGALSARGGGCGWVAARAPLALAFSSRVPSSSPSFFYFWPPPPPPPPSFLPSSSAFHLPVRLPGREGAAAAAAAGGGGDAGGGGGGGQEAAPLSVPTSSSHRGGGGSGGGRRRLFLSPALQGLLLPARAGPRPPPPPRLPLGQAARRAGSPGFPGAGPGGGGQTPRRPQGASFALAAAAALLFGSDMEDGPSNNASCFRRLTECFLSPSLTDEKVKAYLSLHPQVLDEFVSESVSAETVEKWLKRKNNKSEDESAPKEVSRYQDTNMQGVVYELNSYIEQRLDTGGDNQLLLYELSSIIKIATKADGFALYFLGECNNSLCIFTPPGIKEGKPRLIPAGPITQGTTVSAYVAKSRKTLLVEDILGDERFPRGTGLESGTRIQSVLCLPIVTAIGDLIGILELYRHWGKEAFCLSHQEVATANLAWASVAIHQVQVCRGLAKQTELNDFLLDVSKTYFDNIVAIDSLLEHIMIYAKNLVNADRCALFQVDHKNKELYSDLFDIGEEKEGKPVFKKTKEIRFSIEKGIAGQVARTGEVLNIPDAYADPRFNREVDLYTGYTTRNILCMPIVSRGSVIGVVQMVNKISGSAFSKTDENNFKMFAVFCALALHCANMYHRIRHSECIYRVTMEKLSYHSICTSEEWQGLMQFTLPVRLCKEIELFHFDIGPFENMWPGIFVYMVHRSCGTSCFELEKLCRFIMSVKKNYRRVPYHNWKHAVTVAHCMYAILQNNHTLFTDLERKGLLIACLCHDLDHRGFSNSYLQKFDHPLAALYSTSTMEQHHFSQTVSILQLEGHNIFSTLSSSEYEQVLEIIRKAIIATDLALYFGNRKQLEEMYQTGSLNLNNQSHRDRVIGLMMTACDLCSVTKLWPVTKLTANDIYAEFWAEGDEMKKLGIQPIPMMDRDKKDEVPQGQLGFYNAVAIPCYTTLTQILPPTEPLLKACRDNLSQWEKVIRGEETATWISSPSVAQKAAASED

With `Nc1nc2c(ncn2[C@@H]2O[C@@H]3COP(=O)(O)O[C@H]3[C@H]2O)c(=O)[nH]1` [cGMP], the Michaelis-Menten constant (Km) on PDE10 from rat striatum was 1.8 µM; at PDE10 from pig striatum, 2.2 µM; in experiment [1], 3 µM.
